The source of these data is ChEMBL document CHEMBL2074542, “Differential recognition of beta -lactam antibiotics by intestinal and renal peptide transporters, PEPT 1 and PEPT 2” (J Biol Chem, 1995).

One may read the Ki as the dissociation constant of the complex between target and ligand, obtained from inhibition or displacement. The IC50 is the concentration that inhibits the measured activity by half. Read a high IC50 as weaker potency. Usually Km stands for the substrate concentration at which the rate is half of its maximum.

For data set [1], the target named is T1, Solute carrier family 15 member 2 (Homo sapiens, UniProt Q16348).
T1 sequence (Q16348 whole entry): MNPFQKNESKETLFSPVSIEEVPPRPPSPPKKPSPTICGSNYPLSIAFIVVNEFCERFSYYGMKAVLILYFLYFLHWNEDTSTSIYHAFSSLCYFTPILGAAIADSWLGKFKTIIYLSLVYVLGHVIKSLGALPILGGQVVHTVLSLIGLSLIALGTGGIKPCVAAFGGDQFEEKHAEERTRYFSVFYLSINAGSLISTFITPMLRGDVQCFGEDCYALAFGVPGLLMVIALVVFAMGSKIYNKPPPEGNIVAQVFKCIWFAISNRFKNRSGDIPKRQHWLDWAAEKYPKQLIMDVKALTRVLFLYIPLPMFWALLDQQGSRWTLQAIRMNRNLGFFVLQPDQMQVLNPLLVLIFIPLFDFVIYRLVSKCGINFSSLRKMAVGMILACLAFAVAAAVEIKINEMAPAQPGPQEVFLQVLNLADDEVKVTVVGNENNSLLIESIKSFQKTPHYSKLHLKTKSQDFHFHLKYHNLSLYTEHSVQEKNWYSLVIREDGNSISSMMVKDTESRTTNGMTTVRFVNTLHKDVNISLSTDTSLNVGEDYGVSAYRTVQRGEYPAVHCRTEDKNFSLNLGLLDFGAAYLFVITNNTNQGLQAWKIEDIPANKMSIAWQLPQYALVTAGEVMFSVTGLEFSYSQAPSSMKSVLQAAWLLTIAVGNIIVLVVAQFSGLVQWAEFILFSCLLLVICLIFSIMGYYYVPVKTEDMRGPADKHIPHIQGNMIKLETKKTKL
In words: TP_TRANSPORTER: inhibition of Gly-Sar uptake in SKPT cells. It counts as functional, cell-based.

In data set [2] the target is T2, Solute carrier family 15 member 2 (Homo sapiens) (UniProt Q16348).
T2 sequence (whole entry): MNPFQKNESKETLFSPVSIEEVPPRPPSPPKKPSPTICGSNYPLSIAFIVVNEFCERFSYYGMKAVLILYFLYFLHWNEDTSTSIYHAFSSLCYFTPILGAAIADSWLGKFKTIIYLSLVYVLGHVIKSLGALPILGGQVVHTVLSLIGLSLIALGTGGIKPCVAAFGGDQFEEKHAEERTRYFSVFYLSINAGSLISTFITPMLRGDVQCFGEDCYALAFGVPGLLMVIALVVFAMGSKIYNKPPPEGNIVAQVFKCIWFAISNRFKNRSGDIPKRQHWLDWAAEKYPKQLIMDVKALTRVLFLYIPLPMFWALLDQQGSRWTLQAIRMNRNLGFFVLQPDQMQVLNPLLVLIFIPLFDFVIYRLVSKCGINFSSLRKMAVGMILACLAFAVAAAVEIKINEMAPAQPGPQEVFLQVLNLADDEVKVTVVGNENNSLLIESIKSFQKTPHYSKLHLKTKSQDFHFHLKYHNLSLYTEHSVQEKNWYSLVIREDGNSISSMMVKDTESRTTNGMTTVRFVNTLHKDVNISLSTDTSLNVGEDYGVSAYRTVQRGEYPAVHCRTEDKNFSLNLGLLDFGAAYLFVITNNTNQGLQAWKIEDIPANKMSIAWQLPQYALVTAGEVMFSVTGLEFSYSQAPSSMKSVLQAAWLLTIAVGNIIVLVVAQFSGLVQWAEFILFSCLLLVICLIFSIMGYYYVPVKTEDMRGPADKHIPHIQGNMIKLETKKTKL
Nature of the data set: TP_TRANSPORTER: uptake in PEPT2-expressing HeLa cells. It counts as functional, cell-based.

The target of data set [3] is T1, Solute carrier family 15 member 2. Nature of the data set: TP_TRANSPORTER: inhibition of Gly-Sar uptake (Gly-Sar: 50 uM) in PEPT2-expressing HeLa cells. It is filed as functional, cell-based.
For data set [4], the target named is T3, Solute carrier family 15 member 1 (Homo sapiens, UniProt P46059).
T3 sequence (P46059 whole entry): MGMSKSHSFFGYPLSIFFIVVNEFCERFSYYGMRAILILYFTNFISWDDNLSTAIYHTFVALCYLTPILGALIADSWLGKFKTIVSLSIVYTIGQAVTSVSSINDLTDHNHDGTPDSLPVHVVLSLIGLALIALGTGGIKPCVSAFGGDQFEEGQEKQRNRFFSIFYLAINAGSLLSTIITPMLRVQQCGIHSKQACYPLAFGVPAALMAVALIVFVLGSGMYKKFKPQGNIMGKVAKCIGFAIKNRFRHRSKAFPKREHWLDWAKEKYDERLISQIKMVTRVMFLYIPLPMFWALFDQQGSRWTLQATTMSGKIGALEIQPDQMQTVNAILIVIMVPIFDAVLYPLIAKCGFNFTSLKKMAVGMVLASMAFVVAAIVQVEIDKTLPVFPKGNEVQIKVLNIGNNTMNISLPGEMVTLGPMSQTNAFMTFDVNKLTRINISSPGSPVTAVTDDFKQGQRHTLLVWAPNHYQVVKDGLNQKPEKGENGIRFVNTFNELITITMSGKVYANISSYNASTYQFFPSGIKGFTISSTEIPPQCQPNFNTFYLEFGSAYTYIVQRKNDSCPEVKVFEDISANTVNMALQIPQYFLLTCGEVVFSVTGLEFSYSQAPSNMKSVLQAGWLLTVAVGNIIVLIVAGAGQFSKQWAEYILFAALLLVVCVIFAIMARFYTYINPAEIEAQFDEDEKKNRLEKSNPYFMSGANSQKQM
In words: TP_TRANSPORTER: inhibition of Gly-Sar uptake (Gly-Sar: 5 uM) in Caco-2 cells. It is filed as functional, cell-based.

The target in data set [5] is T3, Solute carrier family 15 member 1.
For data set [6], the target named is T1, Solute carrier family 15 member 2. Nature of the data set: TP_TRANSPORTER: inhibition of Cephalexin uptake in SKPT cells. It counts as functional, cell-based.
Substrate in data set [7]: CC1=C(C(=O)O)N2C(=O)[C@@H](NC(=O)[C@H](N)c3ccccc3)[C@H]2SC1
In words: TP_TRANSPORTER: uptake in SKPT cells. It is filed as functional, cell-based.

Peptide text beside a SMILES is read from it.

In turn, `CC1=C(C(=O)O)N2C(=O)[C@@H](NC(=O)[C@H](N)c3ccccc3)[C@H]2SC1` [CEPHALEXIN ANHYDROUS] gave a Ki in data set [1] of 68.2 µM. Further, in data set [2], the Activity result was “substrate [+]”.

For `CC1(C)S[C@@H]2[C@H](NC(=O)C3(N)CCCCC3)C(=O)N2[C@H]1C(=O)O` [CYCLACILLIN], the IC50 in data set [3] turned out to be 610 µM; in data set [4] it was 600 µM; in data set [5], 350 µM. The molecule further showed a Ki in data set [1] of 39.1 µM.

Take `CC1=C(C(=O)O)N2C(=O)[C@@H](NC(=O)[C@H](N)c3ccc(O)cc3)[C@H]2SC1` [CEFADROXIL]: the IC50 stood at 66 µM in data set [3], 5400 µM in data set [4] and 870 µM in data set [5]. Besides, the Ki in data set [1] is 2.8 µM.

As to `CN(CC(=O)O)C(=O)CN` [GLYCYLSARCOSINE] (HELM PEPTIDE1{G.[Sar]}$$$$V2.0), the Ki in data set [6] turned out to be 64 µM.

B1: Solute carrier family 15 member 2 (Rattus norvegicus), Q63424 (protein)
chain: MNPFQKNESKETLFSPVSTEEMLPRPPSPPKKSPPKIFGSSYPVSIAFIVVNEFCERFSYYGMKAVLTLYFLYFLHWNEDTSTSVYHAFSSLCYFTPILGAAIADSWLGKFKTIIYLSLVYVLGHVFKSLGAIPILGGKMLHTILSLVGLSLIALGTGGIKPCVAAFGGDQFEEEHAEARTRYFSVFYLAINAGSLISTFITPMLRGDVKCFGQDCYALAFGVPGLLMVLALVVFAMGSKMYRKPPPEGNIVAQVIKCIWFALCNRFRNRSGDLPKRQHWLDWAAEKYPKHLIADVKALTRVLFLYIPLPMFWALLDQQGSRWTLQANKMNGDLGFFVLQPDQMQVLNPFLVLIFIPLFDLVIYRLISKCRINFSSLRKMAVGMILACLAFAVAALVETKINGMIHPQPASQEIFLQVLNLADGDVKVTVLGSRNNSLLVESVSSFQNTTHYSKLHLEAKSQDLHFHLKYNSLSVHNDHSVEEKNCYQLLIHQDGESISSMLVKDTGIKPANGMAAIRFINTLHKDLNISLDTDAPLSVGKDYGVSAYRTVLRGKYPAVHCETEDKVFSLDLGQLDFGTTYLFVITNITSQGLQAWKAEDIPVNKLSIAWQLPQYVLVTAAEVMFSVTGLEFSYSQAPSSMKSVLQAAWLLTVAVGNIIVLVVAQFSGLAQWAEFVLFSCLLLVVCLIFSVMAYYYVPLKSEDTREATDKQIPAVQGNMINLETKNTRL
On to B1, for which the Km in data set [7] was 49 µM.
